According to US11987588B2, “Modulators of the beta-3 adrenergic receptor useful for the treatment or prevention of heart failure and disorders related thereto” (Arena Pharmaceuticals, Inc., priority 2017, dated 2024):

The molecules below were run against Beta-3 Adrenergic Receptor (Homo sapiens (Human), UniProt P13945) (assay: Homogeneous Time-Resolved Fluorescence (HTRF) cAMP antagonist assay, IC50 determination). Settings: CHO-K1 cells stably expressing recombinant receptor, isoproterenol at EC90.
Beta-3 Adrenergic Receptor, sequence (P13945 whole entry, species assumed): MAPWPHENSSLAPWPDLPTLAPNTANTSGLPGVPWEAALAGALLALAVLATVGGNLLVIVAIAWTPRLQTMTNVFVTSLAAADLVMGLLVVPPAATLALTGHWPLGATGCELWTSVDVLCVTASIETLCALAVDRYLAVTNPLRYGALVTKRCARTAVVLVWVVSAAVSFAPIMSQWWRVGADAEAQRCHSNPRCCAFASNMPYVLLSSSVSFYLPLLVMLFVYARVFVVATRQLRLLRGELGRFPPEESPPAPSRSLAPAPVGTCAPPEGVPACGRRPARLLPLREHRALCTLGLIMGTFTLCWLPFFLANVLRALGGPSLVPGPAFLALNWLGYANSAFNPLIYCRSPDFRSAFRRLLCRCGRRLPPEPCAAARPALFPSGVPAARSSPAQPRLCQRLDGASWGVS
Format: cell-based
Method: HTRF cAMP assays were performed according to manufacturer's instructions (Cisbio, cAMP Dynamic 2 Assay Kit; #62AM4PEJ). CHO-K1 cells stably expressing recombinant receptor were harvested and suspended in warm PBS to make a 300,000 cells/mL stock. This cell suspension was dispensed into 384 well assay plates (PerkinElmer ProxiPlate #6008280) at 5 μL per well (1500 cells/well) along with a cAMP standard curve.
Compounds were dissolved and serially diluted (5-fold) in DMSO to generate a 10-point dose response stock. The stock was then diluted 100-fold in assay buffer (PBS containing 1 mM IBMX) before a volume of 2.5 μL was added to the cells (the final, top concentration of compound in the dose-response is typically 10 or 100 μM). After a brief incubation, 2.5 μL of isoproterenol stock, prepared at a concentration 4 times its EC90 at the receptor of interest, was added to the wells. The EC90 for isoproterenol, a beta-adrenergic agonist, was determined in separate experiments using standard methods to measure agonist potencies.
Following a 1-hour incubation at room temperature, 5 μL of cAMP-D2 Reagent diluted in Lysis Buffer was added to each well followed by 5 μL of Cryptate Reagent. Plates were further incubated at room temperature for 1 hour prior to reading. Time resolved fluorescence measurements were collected on a suitable, HTRF-capable plate reader.
Counts from the plate reader were fit to the cAMP standard curve on the assay plate in order to determine cAMP concentrations in each well, and these values were used to construct dose-response curves to obtain IC50 values.
In the case of CNS(=O)(=O)c1cccc(OC[C@@H](O)CN[C@H]2COC3(CCN(S(=O)(=O)c4cnc5[nH]c(=O)[nH]c5c4)CC3)C2)c1 [Compound 477, 3-((S)-2-hydroxy-3-((R)-8-(2-oxo-2,3-dihydro-1H-imidazo[4,5-b]pyridin-6-ylsulfonyl)-1-oxa-8-azaspiro[4.5]decan-3-ylamino)propoxy)-N-methylbenzenesulfonamide], the IC50 is reported as 0.0523 µM.
In the case of CNS(=O)(=O)c1cccc(OC[C@@H](O)CN[C@H]2COC3(CCN(S(=O)(=O)c4cccc(-c5ccc(CN)cc5)c4)CC3)C2)c1 [Compound 289, 3-((S)-3-((R)-8-(4′-(aminomethyl)biphenyl-3-ylsulfonyl)-1-oxa-8-azaspiro[4.5]decan-3-ylamino)-2-hydroxypropoxy)-N-methylbenzenesulfonamide], the IC50 is reported as 0.0165 µM.
In the case of CN1CCOc2ncc(S(=O)(=O)N3CCC4(CC3)C[C@@H](NC[C@H](O)COc3cccc(S(=O)(=O)NCCO)c3)CO4)cc21 [Compound 417, 3-((S)-2-hydroxy-3-((R)-8-(1-methyl-2,3-dihydro-1H-pyrido[2,3-b][1,4]oxazin-7-ylsulfonyl)-1-oxa-8-azaspiro[4.5]decan-3-ylamino)propoxy)-N-(2-hydroxyethyl)benzenesulfonamide], the IC50 is reported as 0.112 µM.
With CNS(=O)(=O)c1cccc(OC[C@@H](O)CN[C@H]2COC3(CCN(S(=O)(=O)c4cc(-c5ccc(CN)cc5)ccc4OC)CC3)C2)c1 [Compound 385, 3-((S)-3-((R)-8-(4′-(aminomethyl)-4-methoxybiphenyl-3-ylsulfonyl)-1-oxa-8-azaspiro[4.5]decan-3-ylamino)-2-hydroxypropoxy)-N-methylbenzenesulfonamide] the IC50 was 0.011 µM.
Molecule CNS(=O)(=O)c1cccc(OC[C@@H](O)CN[C@H]2COC3(CCN(S(=O)(=O)c4cnn(-c5ccccc5)c4C)CC3)C2)c1 [Compound 281, 3-((S)-2-hydroxy-3-((R)-8-(5-methyl-1-phenyl-1H-pyrazol-4-ylsulfonyl)-1-oxa-8-azaspiro[4.5]decan-3-ylamino)propoxy)-N-methylbenzenesulfonamide] has an IC50 of 0.0107 µM.
For CNS(=O)(=O)c1cccc(OC[C@@H](O)CN[C@H]2COC3(CCN(S(=O)(=O)c4cnc5c(c4)CC(=O)N5)CC3)C2)c1 [Compound 514, 3-((S)-2-hydroxy-3-((R)-8-(2-oxo-2,3-dihydro-1H-pyrrolo[2,3-b]pyridin-5-ylsulfonyl)-1-oxa-8-azaspiro[4.5]decan-3-ylamino)propoxy)-N-methylbenzenesulfonamide], the IC50 was 0.176 µM.
For CNS(=O)(=O)c1cccc(OC[C@@H](O)CN[C@H]2COC3(CCN(S(=O)(=O)c4cnc5c(c4)ncn5C)CC3)C2)c1 [Compound 475, 3-((S)-2-hydroxy-3-((R)-8-(3-methyl-3H-imidazo[4,5-b]pyridin-6-ylsulfonyl)-1-oxa-8-azaspiro[4.5]decan-3-ylamino)propoxy)-N-methylbenzenesulfonamide], the IC50 was 0.0332 µM.
CNS(=O)(=O)c1cccc(OC[C@@H](O)CNC2COC3(CCN(S(=O)(=O)c4cccc(F)c4F)CC3)C2)c1 (stereo partly drawn) [Compound 201, 3-((2S)-3-(8-(2,3-difluorophenylsulfonyl)-1-oxa-8-azaspiro[4.5]decan-3-ylamino)-2-hydroxypropoxy)-N-methylbenzenesulfonamide] gave an IC50 of 0.0171 µM.
CNS(=O)(=O)c1cccc(OC[C@@H](O)CNC2COC3(CCN(S(=O)(=O)c4ccccc4Br)CC3)C2)c1 (stereo partly drawn) [Compound 54, 3-((2S)-3-(8-(2-bromophenylsulfonyl)-1-oxa-8-azaspiro[4.5]decan-3-ylamino)-2-hydroxypropoxy)-N-methylbenzenesulfonamide] gave an IC50 of 0.0174 µM.
For CNS(=O)(=O)c1cccc(OC[C@@H](O)CNC2COC3(CCN(S(=O)(=O)c4cccc(-c5ccc(CN6CCSC6)cc5)c4)CC3)C2)c1 (stereo partly drawn) [Compound 346, 3-((2S)-2-hydroxy-3-(8-(4′-(thiazolidin-3-ylmethyl)biphenyl-3-ylsulfonyl)-1-oxa-8-azaspiro[4.5]decan-3-ylamino)propoxy)-N-methylbenzenesulfonamide], the IC50 was 0.126 µM.
With CCC(C)NS(=O)(=O)c1cccc(OC[C@@H](O)CNC2COC3(CCN(S(=O)(=O)c4ccc5ccccc5c4)CC3)C2)c1 (stereo partly drawn) [Compound 10, N-sec-butyl-3-((2S)-2-hydroxy-3-(8-(naphthalen-2-ylsulfonyl)-1-oxa-8-azaspiro[4.5]decan-3-ylamino)propoxy)benzenesulfonamide] the IC50 was 0.0492 µM.
CNS(=O)(=O)c1cccc(OC[C@@H](O)CNC2COC3(CCN(S(=O)(=O)c4ccc(C(C)=O)cc4)CC3)C2)c1 (stereo partly drawn) [Compound 25, 3-((2S)-3-(8-(4-acetylphenylsulfonyl)-1-oxa-8-azaspiro[4.5]decan-3-ylamino)-2-hydroxypropoxy)-N-methylbenzenesulfonamide] gave an IC50 of 0.026 µM.
For CNS(=O)(=O)c1cccc(OC[C@@H](O)CNC2COC3(CCN(S(=O)(=O)c4cccc(OC)c4)CC3)C2)c1 (stereo partly drawn) [Compound 27, 3-((2S)-2-hydroxy-3-(8-(3-methoxyphenylsulfonyl)-1-oxa-8-azaspiro[4.5]decan-3-ylamino)propoxy)-N-methylbenzenesulfonamide], the IC50 was 0.0138 µM.
CNS(=O)(=O)c1cccc(OC[C@@H](O)CN[C@H]2COC3(CCN(S(=O)(=O)c4ccc(OC)c(-c5ccc(C6(N)CC6)cc5)c4)CC3)C2)c1 [Compound 464, 3-((S)-3-((R)-8-(4′-(1-aminocyclopropyl)-6-methoxybiphenyl-3-ylsulfonyl)-1-oxa-8-azaspiro[4.5]decan-3-ylamino)-2-hydroxypropoxy)-N-methylbenzenesulfonamide] gave an IC50 of 0.0139 µM.
CNS(=O)(=O)c1cccc(OC[C@@H](O)CN[C@H]2COC3(CCN(S(=O)(=O)c4cnc5[nH]c(=O)n(C)c5c4)CC3)C2)c1 [Compound 522, 3-((S)-2-hydroxy-3-((R)-8-(1-methyl-2-oxo-2,3-dihydro-1H-imidazo[4,5-b]pyridin-6-ylsulfonyl)-1-oxa-8-azaspiro[4.5]decan-3-ylamino)propoxy)-N-methylbenzenesulfonamide] gave an IC50 of 0.0222 µM.
CNS(=O)(=O)c1cccc(OC[C@@H](O)CN[C@H]2COC3(CCN(S(=O)(=O)c4cncc(-c5ccc(CN)cc5)c4)CC3)C2)c1 [Compound 375] showed an IC50 of 0.0254 µM.
In the case of CNS(=O)(=O)c1cccc(OC[C@@H](O)CNC2COC3(CCN(S(=O)(=O)c4ccc(N5CCOCC5)nc4)CC3)C2)c1 (stereo partly drawn) [Compound 406, 3-((2S)-2-hydroxy-3-(8-(6-morpholinopyridin-3-ylsulfonyl)-1-oxa-8-azaspiro[4.5]decan-3-ylamino)propoxy)-N-methylbenzenesulfonamide], the IC50 is reported as 0.0311 µM.
CNS(=O)(=O)c1cccc(OC[C@@H](O)CN[C@H]2COC3(CCN(S(=O)(=O)c4cnc5c(c4)OCCN5)CC3)C2)c1 [Compound 500, 3-((S)-3-((R)-8-(3,4-dihydro-2H-pyrido[3,2-b][1,4]oxazin-7-ylsulfonyl)-1-oxa-8-azaspiro[4.5]decan-3-ylamino)-2-hydroxypropoxy)-N-methylbenzenesulfonamide] showed an IC50 of 0.0288 µM.
With CCn1cc(S(=O)(=O)N2CCC3(CC2)C[C@@H](NC[C@H](O)COc2cccc(S(=O)(=O)NC)c2)CO3)c(=O)c2ccc(F)cc21 [Compound 546, 3-((S)-3-((R)-8-(1-ethyl-7-fluoro-4-oxo-1,4-dihydroquinolin-3-ylsulfonyl)-1-oxa-8-azaspiro[4.5]decan-3-ylamino)-2-hydroxypropoxy)-N-methylbenzenesulfonamide] the IC50 was 0.053 µM.
With CNS(=O)(=O)c1cccc(OC[C@@H](O)CNC2COC3(CCN(S(=O)(=O)c4cccc(-c5ccc(CNCC(F)F)cc5)c4)CC3)C2)c1 (stereo partly drawn) [Compound 339, 3-((2S)-3-(8-(4′-((2,2-difluoroethylamino)methyl)biphenyl-3-ylsulfonyl)-1-oxa-8-azaspiro[4.5]decan-3-ylamino)-2-hydroxypropoxy)-N-methylbenzenesulfonamide] the IC50 was 0.0424 µM.
Work on CCN(C(C)C)S(=O)(=O)c1cccc(OC[C@@H](O)CNC2COC3(CCN(S(=O)(=O)c4ccc5ccccc5c4)CC3)C2)c1 (stereo partly drawn) [Compound 7, N-ethyl-3-((2S)-2-hydroxy-3-(8-(naphthalen-2-ylsulfonyl)-1-oxa-8-azaspiro[4.5]decan-3-ylamino)propoxy)-N-isopropylbenzenesulfonamide] yielded an IC50 of 0.285 µM.
Molecule CNS(=O)(=O)c1cccc(OC[C@@H](O)CNC2COC3(CCN(S(=O)(=O)c4ccc(Cl)c5nonc45)CC3)C2)c1 (stereo partly drawn) [Compound 185, 3-((2S)-3-(8-(7-chlorobenzo[c][1,2,5]oxadiazol-4-ylsulfonyl)-1-oxa-8-azaspiro[4.5]decan-3-ylamino)-2-hydroxypropoxy)-N-methylbenzenesulfonamide] has an IC50 of 0.00725 µM.
In the case of CNS(=O)(=O)c1cccc(OC[C@@H](O)CNC2COC3(CCN(S(=O)(=O)c4cc(-c5ccc(CN)cc5)cc(C(F)(F)F)c4)CC3)C2)c1 (stereo partly drawn) [Compound 367, 3-((2S)-3-(8-(4′-(aminomethyl)-5-(trifluoromethyl)biphenyl-3-ylsulfonyl)-1-oxa-8-azaspiro[4.5]decan-3-ylamino)-2-hydroxypropoxy)-N-methylbenzenesulfonamide], the IC50 is reported as 0.0312 µM.
Molecule CNS(=O)(=O)c1cccc(OC[C@@H](O)CNC2COC3(CCN(S(=O)(=O)c4cn(C)cn4)CC3)C2)c1 (stereo partly drawn) [Compound 194, 3-((2S)-2-hydroxy-3-(8-(1-methyl-1H-imidazol-4-ylsulfonyl)-1-oxa-8-azaspiro[4.5]decan-3-ylamino)propoxy)-N-methylbenzenesulfonamide] has an IC50 of 0.0976 µM.
